Measured values from patent publication US20230107216A1, “PANTETHEINE DERIVATIVES AND USES THEREOF” (Comet Therapeutics, Inc., priority 2018, published 2023).
Like-named read-outs stand apart in the source and are kept apart here.

Experiments:
[1] = test system: primary fibroblasts (healthy controls and PA, MMA, BCKDK, PDH, VLCAD, LS, PC, GA, VLCFA, KSS, FXN, HD); assay: Measurement of ROS (H2DCFDA) in primary fibroblasts; format: cell-based, human; settings: Homo sapiens, procedure Example 812, Assay Condition C
In short: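 Patient and healthy-control primary fibroblasts switched to supplemented DMEM 24 h before assay, then treated with compound (10 μM) plus H2DCFDA (22 μM) for 2 h (PA, MMA lines) or 24 h (other lines). Kinetic fluorescence at 492/527 nm over 60 min; only live cells analysed.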

[2] = test system: Propionic Acidemia (PA) primary fibroblasts GM00371; assay: Mitochondrial respiration, XFe96 Extracellular Flux Analyzer (OCR/ECAR), PA fibroblasts GM00371; format: cell-based; settings: Homo sapiens, Fibroblast
HepG2 cells = assay: Glucose uptake (Glucose Uptake-Glo); format: cell-based; settings: Homo sapiens, read-out: % increase in Glucose Uptake
[3] = test system: Very long-chain acyl-CoA dehydrogenase (VLCAD) primary fibroblasts GM17475; assay: Total NAD+ + NADH and NAD+ (NAD/NADH-Glo), VLCAD fibroblasts GM17475; format: cell-based; settings: Homo sapiens, Fibroblast, VLCAD GM17475 P10, assay condition A, 24h, read-out: Increase in Total NAD+ + NADH
Procedure: (§1) Primary adherent fibroblasts were cultured in minimum essential medium (MEM) (Gibco, 25030081) supplemented with 2 mM L-Glutamine (Gibco, 25030081), 15% fetal bovine serum (FBS) (Gibco, 26400044) and 1% penicillin/streptomycin (Gibco, 5140122) at 37° C. and 5% CO2. Cells were collected for either passaging or experiment at ˜70-80% confluence. Cells were obtained by trypsinization and seeded in cell culture microplates either white plate (Thermo Fisher Scientific, 152028) for luminescent measurement or black plate (Thermo Fisher Scientific, 165305) for fluorescent based read out for different assays listed below. Cells were obtained by trypsinization and […] were seeded and allowed to adhere for 16-18 hours to have confluency around 70-80% in the cell well with culture media. After 24 hours prior to measurements (37° C., 5% CO2) media was changed to Dulbecco's Modified Eagle Medium (DMEM, Agilent Seahorse cat #103575-100) with the appropriate supplements as stated below.
(§2) Primary fibroblasts assayed were Propionic Acidemia (PA) (GM03590 Coriell Institute for Medical Research, Tsi 6337 Trans-Hit Bio), Methylmalonic Acidemia (MMA) (Tsi 5224 Trans-Hit Bio), Subnormal activation of pyruvate dehydrogenase complex (PDH) (GM01503 Coriell Institute for Medical Research), Very long-chain acyl-CoA dehydrogenase (VLCAD) (GM17475), Leigh Syndrome (LS) (GM03672, GM13411 Coriell Institute for Medical Research), Pyruvate Carboxylase Deficiency (PC) (GM00444 Coriell Institute for Medical Research). 10 μM of Compounds were added for 2 hours in PA, MMA lines and for 24h for the other fibroblast lines.
(§3) Assay was performed according to manufacturer instructions (NAD/NADH-Glo Assay Promega, G9072). The NAD/NADH-Glo Assay is a bioluminescent assay for detecting total oxidized and reduced nicotinamide adenine dinucleotides (NAD+ and NADH, respectively) from which ratio of NAD/NADH can be calculated. Briefly, for every assay a 12-point standard curve was prepared ranging from 400 nM to 0.625 nM. Media was removed and replaced with 50 μl of PBS for both assays.
(§4) For individual NAD+ and NADH measurement, 50 μl of 1% DTAB (Sigma Cat #D5047) (cell lysis reagent) in 0.2N NaOH was added to the plate and a total 100 μl of lysate was split into two plates with 50 μl each. 25 μl of 0.4N HCl were added to the NAD+ plate and both NAD+ and NADH plate were heated at 60° C. for 15 minutes. The acid and heat treatment destroyed NADH allowing individual NAD+ measurement while heating in basic conditions destroys NAD+ allowed individual NADH measurements. The plates were allowed to come to room temperature for 10 minutes and Trizma base (Sigma, T1699) was added to the NAD+ plate to neutralize the acid and HCl Trizma hydrochloride (Sigma, T2694) was added to the NADH plate. The NADNADH glo reagent was prepared by adding: 625 μl of NAD cycling substrate, 125 μl of reductase, 125 μl of reductase substrate, 125 μl NAD cycling enzyme to total of the 25 ml of NAD GLO reagent. 1:1 ratio of total volume of reagent was added to the individual NAD+, NADH measurement (total 100 μl) and 50 μl for total NAD/NAH measurement. Luminescence was read between 30-60 minutes within the linear range.
(§5) A total dead cell count was performed as described in Example 817 and only alive cells were used for analysis.

[4] = test system: Subnormal activation of pyruvate dehydrogenase complex (PDH) primary fibroblasts GM01503 (GM1503A); assay: Total NAD+ + NADH and NAD+ (NAD/NADH-Glo), PDH fibroblasts GM01503; format: cell-based; settings: Homo sapiens, Fibroblast, PDH GM1503A P10, assay condition A, 24h, read-out: Increase in Total NAD+ + NADH
Procedure: as §1, §2, §3, §4, §5

[5] = test system: Bronchial epithelial cells co-cultured with dermal fibroblast (BF4T system); assay: BioMAP BF4T system (TNFα and IL-4); format: cell-based, human; settings: 10 uM, procedure of Example 830
[6] = test system: Peripheral blood mononuclear cells co-cultured with B-cells (BT system); assay: cells; settings: Homo sapiens, 72 h, read-out: % decrease in sIL-17
[7] = test system: Venular Endothelial cells (HUVEC) (3C system); assay: BioMAP 3C system (IL-1β, TNFα, IFNγ); format: cell-based, human; settings: 10 uM; procedure of Example 825
Procedure: (§6) The BioMAP platform (BioMAP® Diversity PLUS® Panel from Eurofins) is an in vitro phenotypic profiling technology that screened the compounds of the present disclosure (hereafter indicated as test agents) in human primary cell-based systems modelling complex tissue and disease states. The BioMAP assays were performed using the Eurofin's BioMAP Technology Platform as (see references 1 to 13 in the example 824 section) to model different diseases on primary cell-based model systems. These systems consisted of either single primary cell types or co-culture cells. Adherent cell types were cultured or co-cultured in 96 or 384-well plates until confluence followed by the addition of compounds prepared in DMSO at a final concentration of ≤0.1%. In each cell-based system, primary cells from heathy donors (2-6 donors) were pooled and treated with compounds at 1 and 10 μM dose 1h prior to stimulation and remain in culture as indicated in Example 825, Example 826, Example 827, Example 828, Example 829, Example 830, Example 831, Example 832, Example 833, Example 834, Example 835, Example 836 and Example 837. For on the BioMAP® Diversity PLUS® Panel, please see the following references, which are incorporate herein.
Following the general procedure as described in Example 824, Venular Endothelial cells (HUVEC) (3C system) were treated with IL-1β, TNFα, IFNγ for 24h to model Th1 driven cardiovascular and chronic inflammation diseases in the presence or absence of the compounds. Biomarker read out were; Tissue Factor, ICAM-1, E-selectin, uPAR (CD87), IL-8, MIG, HLA-DR, proliferation and SRB (Sulfo-rhodamine i.e. staining for protein content).

[8] = test system: Coronary artery smooth muscle cells (CASM3C system); assay: BioMAP CASM3C system (IL-1β, TNFα, IFNγ); format: cell-based, human
[9] = test system: Bronchial epithelial cells (BE3C system); assay: BioMAP BE3C system (IL-1β, TNFα, IFNγ); format: cell-based, human; settings: Homo sapiens, Epithelial cell, 24 h; 10 uM; procedure of Example 831; read-out: % decrease in MMP-1
[10] = test system: Venular Endothelial cells (HUVEC) (4H system); assay: BioMAP 4H system (IL-4 and histamine); format: cell-based, human; settings: 10 uM; procedure of Example 826
[11] = test system: Dermal fibroblasts (HDF3CGF system); assay: BioMAP HDF3CGF system (IL-1β, TNFα, IFNγ, EGF, bFGF, PDGF-BB); format: cell-based, human; settings: Homo sapiens, Fibroblast, 72 h; 10 uM; read-out: % increase in 72 Hour Proliferation
[12] = test system: Peripheral blood mononuclear cells co-cultured with B-cells (BT system)
[13] = test system: Peripheral blood mononuclear cells co-cultured with venular endothelial cells (HUVEC) (LPS system); assay: BioMAP LPS system; format: cell-based, human; settings: procedure of Example 827
[14] = test system: Keratinocytes co-cultured with dermal fibroblast (KF3CT system); assay: BioMAP KF3CT system (IL-1β, TNFα, IFNγ, TGFβ); format: cell-based, human
Procedure: as §6
Following the general procedure as described in Example 824, Keratinocytes were co-cultured with dermal fibroblast (KF3CT system) and treated with IL-1β, TNFα, IFNγ and TGFβ for 24h in the presence or absence of the compounds to model psoriasis, dermatitis and skin biology. Biomarkers read out were; MCP-1, ICAM-1, IP-10, IL-8, MIG, IL-1α, MMP-9, PAI-1, SRB, TIMP-2, uPA.

CC(=O)C(C(C)=O)C(=O)SCCNC(=O)CCNC(=O)[C@H](O)C(C)(C)CO [Compound 397, (2R)—N-[2-([2-[(2-acetyl-3-oxobutanoyl)sulfanyl]ethyl]arbamoyl)ethyl]-2,4-dihydroxy-3,3-dimethylbutanamide]
inhibition at 10 µM ([1]; Fibroblast, PDH GM01503, read-out: Decreased ROS by at least 10%): ≥ 10% | inhibition at 10 µM ([1]; Fibroblast, PDH GM01503, read-out: Decreased ROS by at least 30%): ≥ 30% | inhibition at 10 µM ([1]; FXN GM04078, read-out: Decreased ROS by at least 30%): ≥ 30% | activation at 50 µM ([2]; assay condition C (10 mM glucose, 10% FBS), read-out: Increase in Maximal Respiratory Capacity AUC): ≥ 10% | activation at 10 µM (HepG2 cells; 10 uM): ≥ 20% | activation at 10 µM [3]: ≥ 10% | activation at 10 µM [4]: ≥ 10%

COC(=O)CCC(=O)SCCNC(=O)CCNC(=O)[C@H](OC(C)=O)C(C)(C)CO [Compound 213, methyl 4-[(2-[3-[(2R)-2-(acetyloxy)-4-hydroxy-3,3-dimethylbutanamido]propanamido]ethyl)sulfanyl]-4-oxobutanoate]
% decrease in MMP-9 [5]: ≥10% | activation at 10 µM ([5]; Homo sapiens, 24 h, read-out: % increase in VCAM-1): ≥ 10% | activation at 10 µM ([2]; assay condition A (10 mM glucose, 2 mM L-glutamine, 1 mM pyruvate, 10% FBS), 10 μM, read-out: Increase in Spare Capacity AUC): ≥ 10% | activation at 50 µM ([2]; assay condition D (1 mM glucose, 10% FBS), read-out: Increase in Spare Capacity AUC): ≥ 10% | activation at 50 µM (HepG2 cells; 50 uM): ≥ 30% | inhibition at 1 µM [6]: ≥ 20% | % decrease in IL-8 [7]: ≥10% | % decrease in HLA-DR ([8]; 1 uM): ≥10% | % decrease in Tissue Factor ([8]; 1 uM): ≥10% | % decrease in M-CSF ([8]; 1 uM, procedure of Example 832): ≥10% | % decrease in VCAM-1 ([8]; 1 uM, procedure of Example 832): ≥10% | % decrease in CXCL9 ([8]; 10 uM): ≥10% | inhibition at 10 µM ([8]; Homo sapiens, 24 h, 10 uM, read-out: % decrease in Thrombomodulin): ≥ 20% | inhibition at 10 µM [9]: ≥ 10% | % decrease in MCP-1 [10]: ≥10% | activation at 10 µM [11]: ≥ 10% | % decrease in sIL-2 ([12]; 1 uM, procedure of Example 829): ≥10% | % decrease in sTNFα ([12]; 1 uM, procedure of Example 829): ≥10% | % decrease in PBMC cytotoxicity ([12]; human, 72 h, 1 µM): ≥10% | % decrease in M-CSF ([13]; 1 uM): ≥10% | inhibition at 1 µM ([13]; Homo sapiens, HUVEC, 24 h, 1 uM, read-out: % decrease in IL-8): ≥ 10% | inhibition at 10 µM ([13]; Homo sapiens, HUVEC, 24 h, read-out: % decrease in IL-1α): ≥ 20% | inhibition at 10 µM ([13]; Homo sapiens, HUVEC, 24 h, read-out: % decrease in TissueFactor): ≥ 10% | % decrease in MMP-9 ([14]; 1 uM): ≥10% | % decrease in MCP-1 ([14]; 10 uM, procedure of 834): ≥10%
